From patent US20130231472A1, “USE OF MOLECULAR MARKERS FOR THE PRECLINICAL PROFILING OF INHIBITORS OF ENZYMES HAVING HISTONE DEACETYLASE ACTIVITY” (priority 2002, published 2013)

Legend:
leukemic spleens = assay: Apoptosis in leukemic spleens after in vivo treatment (TUNEL assay); set-up: species or system mice; conditions: VPA 400 mg/kg every 12 hours, 48 hours; FIG. 3A
Protocol: FIG. 3: (A) Secondary acute promyelocytic leukemias were induced in mice as described above. Leukemic mice were then treated with placebo (Ctrl), or VPA (400 mg/kg every 12 hours). Mice were sacrificed 48 hours after beginning of treatments, and then leukemic spleens were fixed and either stained for histological examination (hematoxylin-eosyn, left panels), or analyzed for the presence of apoptotic cells (TUNEL assay, right panels). (B) Secondary leukemias were obtained as above. Mice were sacrificed when leukemic invasion of peripheral organs was >75% (spleen). Splenocytes from healthy mice (taken as control, left panel), or from leukemic mice (>75% blasts, right panel) were put in culture and then treated with VPA (1 mM) for 48 hours. At the end of the treatment, apoptosis was measured by propidium iodide staining. The sub-G1 area indicates the hypodiploid DNA peak corresponding to cells with fragmented DNA undergoing apoptosis.

HDAC-2 = assay: Ubiquitinated HDAC-2 by His6-tagged ubiquitin / Ni2+-NTA agarose precipitation in HEK293T cells; format: cell-based, human; conditions: VPA 36 h, FIG. 10B
Protocol: FIG. 10: (A) The total amount of high molecular weight poly-ubiquitinated protein was not altered by VPA treatment of cells (left two lanes). The presence of ubiquitinated proteins in anti HDAC-2 immune precipitates is shown in the right part of the panel. Cells had either been left untreated, were exposed to VPA (1.5 mM, 24 h) or the proteasome inhibitor ALLN (5 μM, 24 h) or both. Ubiquitinated proteins in the precipitates were detected by Western blot analysis. For lane N a non-immune serum was used instead of the anti HDAC-2 antibody. (B) The presence of mono- and/or oligo-ubiquitinated HDAC-2 upon VPA treatment of HEK293T cells was determined by ectopic expression of His6-tagged ubiquitin followed by VPA-treatment for 36 h as indicated. The proteasome inhibitor MG-132 was added 4 h prior to analysis to enhance the accumulation of ubiquitinated proteins. Electrophoretic mobility and unaltered presence of non-ubiquitinated HDAC-2 were determined by Westernblot analysis of whole cell extracts (left panel). Ubiquitinated proteins were precipitated with Ni^2+-NTA-agarose and analyzed for presence of ubiquitinated HDAC-2 (middle panel) by Westernblot analysis of precipitates. Anti-HDAC-2 immuno-reactive bands with the expected mobility of mono- or poly-ubiquitinated HDAC-2 are indicated by a bracket.

TRAIL = TRAIL expression in spleen after in vivo treatment (RNAse protection assay); set-up: species or system mice; conditions: VPA 400 mg/kg every 12 hours, FIG. 4A
Protocol: Leukemic mice or healthy mice (Ctrl) were then treated with placebo (lanes 1, 3), VPA (400 mg/kg every 12 hours), all-trans retinoic acid (a 21-day-release pellet containing 5 mg RA or placebo: lanes 8-9), and VPA plus retinoic acid (lanes 10-11). Mice were sacrificed 18 hours (lanes 4-5), or 36 hours after beginning of treatment (lanes 3, 6-7, 10-11): total RNAs were collected from the spleens (with a >75% invasion of leukemic blasts as assessed by Giemsa staining) and analyzed by RNAse protection assay to check for expression of TRAIL.

[1] = tested on: acute promyelocytic leukemia mice; assay: Secondary acute promyelocytic leukemia mouse model: survival and splenomegaly; format: in vivo
From the text: FIG. 1: (A) Secondary acute promyelocytic leukemias were induced in mice. In brief, primary leukemias were induced in mice by injecting PMURAR expressing bone marrow cells into the tail veins. Mice with overt leukemias were euthanized, and leukemic cells were harvested from the spleen. Leukemic cells were re-injected i.v. (1×10^7 cells/mouse) in non-irradiated, syngeneic recipient mice. The secondary recipient mice developed overt leukemia in about 2-3 weeks. Leukemic mice or healthy mice (Ctrl) were then treated with placebo (lanes 1, 3), or VPA (400 mg/kg every 12 hours) for two consecutive weeks. (B) Leukemic mice were treated with placebo (lower, Ctrl) or VPA (400 mg/kg every twelve hours, upper) for one week. At the end of the treatment, mice were sacrificed, and spleens were photographed.

CCCC(CCC)C(=O)O [VPA, Valproic acid]
apoptotic cells in leukemic spleens (TUNEL) (leukemic spleens): induces massive apoptosis within leukemic spleens | gross abundance of ubiquitinated proteins (anti His-tag) (HDAC-2): not altered | oligo- and polyubiquitinated HDAC-2 bands in Ni2+-NTA-agarose precipitates (HDAC-2; MG-132 added 4 h prior to analysis): much more abundant | TRAIL expression in spleen (TRAIL; healthy mice): did not cause induction of TRAIL expression | TRAIL expression in spleen (TRAIL; leukemic mice, 18 or 36 hours): induced TRAIL for the entire duration of treatment | survival of leukemic mice ([1]; VPA 400 mg/kg every 12 hours for two consecutive weeks vs placebo, P<0.01, FIG. 1A): extended survival of leukemic mice in a statistically significant way | splenomegaly caused by blast infiltration ([1]; VPA 400 mg/kg every twelve hours for one week vs placebo, FIG. 1B): dramatic reduction in the splenomegaly
